Reference: patent US10570179B2, “Substituted urea depsipeptide analogs as activators of the CLPP endopeptidase” (priority 2016, dated 2020)
Values after ≈ are worked out from the molar mass of the structure shown. Read-outs that look alike come from different tables or passages of the source. Numbered stars: 1 amine (or outer) side, 2 acyl side, 3 side chain; on linkers, the order of the positions; unused ones are H or OH. Bridge positions count the residues as written; N and C are the ends. Square brackets hold non-standard residues; d marks the D form. Peptide text beside a SMILES is read from it. * marks the point of attachment. X5 = O=C([C@@H]1C[C@@H](OP(=O)(O)O)CN1[*:1])[*:2]; Piperazine(2S-CO,4-Me) = CN1CCN[C@H](C(=O)O)C1; Phe(3,5-Me2) = Cc1cc(C)cc(C[C@H](N)C(=O)O)c1; Phe(3-Me) = Cc1cccc(C[C@H](N)C(=O)O)c1; NH(4-Cl-2-F-phenyl) = Fc1cc(Cl)ccc1N*; Pro(4R-Me) = C[C@H]1CN[C@H](C(=O)O)C1; X1 = O=C([C@@H]1CSCCN1[*:1])[*:2]; Hyp = O=C(O)[C@@H]1C[C@@H](O)CN1; NH(4-Et-phenyl) = CCc1ccc(N*)cc1; NH(4-Me-phenyl) = Cc1ccc(N*)cc1; aThr = C[C@H](O)[C@H](N)C(=O)O; Pip = O=C(O)[C@@H]1CCCCN1; 4Abz = Nc1ccc(C(=O)O)cc1; X3 = c1cc2c(cc1N*)OCCO2; CO = O=C([*:1])[*:2]

Columns and labels:
[1] = Microsomal metabolic stability; assay type: in vitro ADME, mouse
In short: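 CD-1 mouse liver microsomes (0.6381 mg/mL protein microsomal solution, 0.1 M potassium phosphate pH 7.4 with EDTA) were incubated with compound and an NADPH-regenerating system at 37 °C, in triplicate. Acetonitrile/warfarin quench at 0, 15, 30, 60, 120 and 240 min, then LCMS. Half-life came from a first-order least-squares fit.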

Solubility determination = assay type: physicochemical; conditions: for solubility kinetic at 10 min: 22 °C, aqueous buffer, kinetic from dmso stock
In short: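 DMSO stock spiked into DPBS at 100 µM final, in triplicate, shaken 10 min, then centrifuged 20 min at 22 °C. Supernatant quantified by UPLC-UV and single-ion-recording MS against DMSO calibration standards (0.098–100 µM), using 1/x²-weighted linear regression.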

Plasma stability assay = assay type: in vitro ADME, human
In short: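 Compounds at 10 μM final in human or mouse plasma, incubated at 37 °C and sampled at 0, 3, 24 and 48 h in triplicate. Reactions quenched with cold acetonitrile containing warfarin internal standard; parent measured by LC-MS. Half-life from least-squares first-order fit.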

[2] = microsomal metabolic stability half-life, mouse liver microsomes
[3] = solubility in DPBS, 100 μM test samples, LCMS, read-out: LCMS
[4] = plasma stability half-life, human plasma, 37° C.

Compound	Mouse ([1]; CD-1, mouse, pH 7.4)	μsol (μM) (Solubility determination)	solubility kinetic at 10 min (Solubility determination)	Human (Plasma stability assay; human, 10 μM)	Mouse [1, 2]	solubility kinetic at 10 min (Solubility determination; [3])	μsol (μM) (Solubility determination; solubility)	Human (Plasma stability assay; [4])	μsol (μg/mL) (Solubility determination)	Human (hr) (Plasma stability assay; human, 10 μM)
Cc1cccc(C[C@H](NC(=O)Nc2ccc(Cl)cc2F)C(=O)N[C@@H]2C(=O)N3C[C@H](O)C[C@H]3C(=O)N3CCSC[C@H]3C(=O)N[C@@H](C)C(=O)N3C[C@H](C)C[C@H]3C(=O)O[C@H]2C)c1 [Compound 41, (S)-2-(3-(4-CHLORO-2-FLUOROPHENYL)UREIDO)-N-((6AS,8R,12S,13S,15AS,17R,21S,23AR)-8-HYDROXY-13,17,21-TRIMETHYL-6,11,15,20,23-PENTAOXOOCTADECAHYDRO-6H,11H,15H-DIPYRROLO[2,1-C:2′,1′-L][1,4]THIAZINO[3,4-I][1]OXA[4,7,10,13]TETRAAZACYCLOHEXADECIN-12-YL)-3-(M-TOLYL)PROPANAMIDE] ({NH(4-Cl-2-F-phenyl)-CO}-[Phe(3-Me)][aThr][Hyp][X1]A[Pro(4R-Me)]; ester 2-C)	0.11 ± .113 h	2.4 ± .40 µM	1.4 ± 0.4 µM (≈ 1.2 µg/mL)	>50 h	–	–	–	–	–	–
Cc1cccc(C[C@H](NC(=O)Nc2ccc(Cl)cc2F)C(=O)N[C@H]2COC(=O)[C@@H]3C[C@@H](C)CN3C(=O)[C@H](C)NC(=O)[C@@H]3CCCCN3C(=O)[C@@H]3CCCN3C2=O)c1 [Compound 8, (S)-2-(3-(4-CHLORO-2-FLUOROPHENYL)UREIDO)-N-((2R,6S,8AS,14AS,20S,23AS)-2,6-DIMETHYL-5,8,14,19,23-PENTAOXOOCTADECAHYDRO-1H,5H,14H,19H-PYRIDO[2,1-I]DIPYRROLO[2,1-C:2′,1′-L][1]OXA[4,7,10,13]TETRAAZACYCLOHEXADECIN-20-YL)-3-(M-TOLYL)PROPANAMIDE]	1.22 ± 0.13 h	8.8 ± 0.7 µM	2.79 ± 0.5 µM (≈ 2.26 µg/mL)	34.37 h	–	–	–	–	–	–
Cc1cccc(C[C@H](NC(=O)Nc2ccc(Cl)cc2F)C(=O)N[C@@H]2C(=O)N3C[C@H](OP(=O)(O)O)C[C@H]3C(=O)N3CCCC[C@H]3C(=O)N[C@@H](C)C(=O)N3C[C@H](C)C[C@H]3C(=O)O[C@H]2C)c1 [Compound 29, (2R,6S,8AS,14AS,16R,20S,21S,23AS)-20-((S)-2-(3-(4-CHLORO-2-FLUOROPHENYL)UREIDO)-3-(M-TOLYL)PROPANAMIDO)-2,6,21-TRIMETHYL-5,8,14,19,23-PENTAOXOOCTADECAHYDRO-1H,5H,14H,19H-PYRIDO[2,1-I]DIPYRROLO[2,1-C:2′,1′-L][1]OXA[4,7,10,13]TETRAAZACYCLOHEXADECIN-16-YL DIHYDROGEN PHOSPHATE] ({NH(4-Cl-2-F-phenyl)-CO}-[Phe(3-Me)][aThr][X5][Pip]A[Pro(4R-Me)]; ester 2-C)	–	–	–	–	>4 h	66.6 ± 6.6 µM	58.7 ± 8.7 µM	>50 h	–	–
Cc1cccc(C[C@H](NC(=O)Nc2ccc(Cl)cc2F)C(=O)N[C@H]2COC(=O)[C@@H]3C[C@@H](C)CN3C(=O)[C@H](C)NC(=O)[C@@H]3CCCCN3C(=O)[C@@H]3C[C@@H](O)CN3C2=O)c1 [Compound 10]	0.7 ± 0.07 h	26.0 ± 0.9 µM	27.04 ± 0.25 µM (≈ 22.3 µg/mL)	58.50 h	–	–	–	–	–	–
Cc1cccc(C[C@H](NC(=O)Nc2ccc(Cl)cc2F)C(=O)N[C@@H]2C(=O)N3C[C@H](O)C[C@H]3C(=O)N3CCCC[C@H]3C(=O)N[C@@H](C)C(=O)N3C[C@H](C)C[C@H]3C(=O)O[C@H]2C)c1 [Compound 6, (S)-2-(3-(4-CHLORO-2-FLUOROPHENYL)UREIDO)-N-((2R,6S,8AS,14AS,16R,20S,21S,23AS)-16-HYDROXY-2,6,21-TRIMETHYL-5,8,14,19,23-PENTAOXOOCTADECAHYDRO-1H,5H,14H,19H-PYRIDO[2,1-I]DIPYRROLO[2,1-C:2′,1′-L][1]OXA[4,7,10,13]TETRAAZACYCLOHEXADECIN-20-YL)-3-(M-TOLYL)PROPANAMIDE] ({NH(4-Cl-2-F-phenyl)-CO}-[Phe(3-Me)][aThr][Hyp][Pip]A[Pro(4R-Me)]; ester 2-C)	4.61 ± 1.2 h	13.9 ± 1.4 µM	12.6 ± 0.3 µM (≈ 10.6 µg/mL)	>50 h	–	–	–	–	–	–
CCc1ccc(NC(=O)N[C@@H](Cc2cccc(C)c2)C(=O)N[C@@H]2C(=O)N3C[C@H](O)C[C@H]3C(=O)N3CCCC[C@H]3C(=O)N[C@@H](C)C(=O)N3C[C@H](C)C[C@H]3C(=O)O[C@H]2C)cc1 [Compound 25, (S)-2-(3-(4-ETHYLPHENYL)UREIDO)-N-((2R,6S,8AS,14AS,16R,20S,21S,23AS)-16-HYDROXY-2,6,21-TRIMETHYL-5,8,14,19,23-PENTAOXOOCTADECAHYDRO-1H,5H,14H,19H-PYRIDO[2,1-I]DIPYRROLO[2,1-C:2′,1′-L][1]OXA[4,7,10,13]TETRAAZACYCLOHEXADECIN-20-YL)-3-(M-TOLYL)PROPANAMIDE] ({NH(4-Et-phenyl)-CO}-[Phe(3-Me)][aThr][Hyp][Pip]A[Pro(4R-Me)]; ester 2-C)	2.35 ± 0.27 h	9.0 ± 0.3 µM	18.6 ± 1.17 µM (≈ 15.2 µg/mL)	>50 h	–	–	–	–	–	–
CCOC(=O)c1ccc(NC(=O)N[C@@H](Cc2cccc(C)c2)C(=O)N[C@@H]2C(=O)N3C[C@H](O)C[C@H]3C(=O)N3CCCC[C@H]3C(=O)N[C@@H](C)C(=O)N3C[C@H](C)C[C@H]3C(=O)O[C@H]2C)cc1 [Compound 36, ETHYL 4-(3-((S)-1-(((2R,6S,8AS,14AS,16R,20S,21S,23AS)-16-HYDROXY-2,6,21-TRIMETHYL-5,8,14,19,23-PENTAOXOOCTADECAHYDRO-1H,5H,14H,19H-PYRIDO[2,1-I]DIPYRROLO[2,1-C:2′,1′-L][1]OXA[4,7,10,13]TETRAAZACYCLOHEXADECIN-20-YL)AMINO)-1-OXO-3-(M-TOLYL)PROPAN-2-YL)UREIDO)BENZOATE] ({OEt-4Abz-CO}-[Phe(3-Me)][aThr][Hyp][Pip]A[Pro(4R-Me)]; ester 2-C)	–	–	–	–	11.23 ± 1.23 h	8.17 ± 0.167 µM (≈ 7.02 µg/mL)	6.4 ± .40 µM	57.50 h	–	–
Cc1cccc(C[C@H](NC(=O)Nc2ccc3c(c2)OCCO3)C(=O)N[C@@H]2C(=O)N3CCC[C@H]3C(=O)N3CCCC[C@H]3C(=O)N[C@@H](C)C(=O)N3C[C@H](C)C[C@H]3C(=O)O[C@H]2C)c1 [Compound 21, (S)-2-(3-(2,3-DIHYDROBENZO[B][1,4]DIOXIN-6-YL)UREIDO)-3-(M-TOLYL)-N-((2R,6S,8AS,14AS,20S,21S,23AS)-2,6,21-TRIMETHYL-5,8,14,19,23-PENTAOXOOCTADECAHYDRO-1H,5H,14H,19H-PYRIDO[2,1-I]DIPYRROLO[2,1-C:2′,1′-L][1]OXA[4,7,10,13]TETRAAZACYCLOHEXADECIN-20-YL)PROPANAMIDE] ({X3-CO}-[Phe(3-Me)][aThr]P[Pip]A[Pro(4R-Me)]; ester 2-C)	3.38 ± 0.37 h	36.8 ± 1.6 µM	30.6 ± 0.7 µM (≈ 25.4 µg/mL)	>50 h	–	–	–	–	–	–
Cc1ccc(NC(=O)N[C@@H](Cc2cccc(C)c2)C(=O)N[C@@H]2C(=O)N3C[C@H](O)C[C@H]3C(=O)N3CCSC[C@H]3C(=O)N[C@@H](C)C(=O)N3C[C@H](C)C[C@H]3C(=O)O[C@H]2C)cc1 [Compound 42, (S)—N-((6AS,8R,12S,13S,15AS,17R,21S,23AR)-8-HYDROXY-13,17,21-TRIMETHYL-6,11,15,20,23-PENTAOXOOCTADECAHYDRO-6H,11H,15H-DIPYRROLO[2,1-C:2′,1′-L][1,4]THIAZINO[3,4-I][1]OXA[4,7,10,13]TETRAAZACYCLOHEXADECIN-12-YL)-3-(M-TOLYL)-2-(3-(P-TOLYL)UREIDO)PROPANAMIDE] ({NH(4-Me-phenyl)-CO}-[Phe(3-Me)][aThr][Hyp][X1]A[Pro(4R-Me)]; ester 2-C)	–	–	–	–	0.78 ± .783 h	29.2 ± 9.2 µM (≈ 23.9 µg/mL)	29.7 ± 9.7 µM	>50 h	–	–
Cc1cc(C)cc(C[C@H](NC(=O)Nc2ccc(Cl)cc2F)C(=O)N[C@@H]2C(=O)N3CCC[C@H]3C(=O)N3CCCC[C@H]3C(=O)N[C@@H](C)C(=O)N3C[C@H](C)C[C@H]3C(=O)O[C@H]2C)c1 [Compound 4, (S)-2-(3-(4-CHLORO-2-FLUOROPHENYL)UREIDO)-3-(3,5-DIMETHYLPHENYL)-N-((2R,6S,8AS,14AS,20S,21S,23AS)-2,6,21-TRIMETHYL-5,8,14,19,23-PENTAOXOOCTADECAHYDRO-1H,5H,14H,19H-PYRIDO[2,1-I]DIPYRROLO[2,1-C:2′,1′-L][1]OXA[4,7,10,13]TETRAAZACYCLOHEXADECIN-20-YL)PROPANAMIDE] ({NH(4-Cl-2-F-phenyl)-CO}-[Phe(3,5-Me2)][aThr]P[Pip]A[Pro(4R-Me)]; ester 2-C)	6.99 ± 1.07 h	–	–	–	–	–	–	–	<0.1 µg/mL	>>48 hr
Cc1ccc(NC(=O)N[C@@H](Cc2cccc(C)c2)C(=O)N[C@@H]2C(=O)N3C[C@H](O)C[C@H]3C(=O)N3CCN(C)C[C@H]3C(=O)N[C@@H](C)C(=O)N3C[C@H](C)C[C@H]3C(=O)O[C@H]2C)cc1 [Compound 30, (S)—N-((6AS,8R,12S,13S,15AS,17R,21S,23AS)-8-HYDROXY-2,13,17,21-TETRAMETHYL-6,11,15,20,23-PENTAOXOOCTADECAHYDRO-2H,6H,11H,15H-PYRAZINO[2,1-I]DIPYRROLO[2,1-C:2′,1′-L][1]OXA[4,7,10,13]TETRAAZACYCLOHEXADECIN-12-YL)-3-(M-TOLYL)-2-(3-(P-TOLYL)UREIDO)PROPANAMIDE] ({NH(4-Me-phenyl)-CO}-[Phe(3-Me)][aThr][Hyp][Piperazine(2S-CO,4-Me)]A[Pro(4R-Me)]; ester 2-C)	–	–	–	–	6.21 ± .215 h	68.8 ± 8.8 µM (≈ 56.2 µg/mL)	54.5 ± 4.5 µM	>50 h	–	–
